Converted amounts (≈) assume the structure as drawn. Where two headings read alike, the source gives them in different places.
Legend:
[1] = system: Baccilus cereus ATCC 9634; experiment: In vitro antibacterial activity (MIC method specified by the Japan Chemotherapeutic Society); type: cell-based; conditions: sensitive media (Eiken), read-out: MIC value (minimum inhibitory concentration)
Protocol: (§1) The antibacterial activity of the compound I against various bacteria was measured using sensitive media (produced by Eiken Co.) according to the MIC method specified by the Japan Chemotherapeutic Society. Erythromycin A was used as a control.

[2] = system: Bacillus subtilis ATCC 6633; experiment: as above; type: cell-based
Protocol: as §1

[3] = system: Escherichia coli NIHJ JC-2; experiment: as above; type: cell-based; conditions: NIHJJC2, sensitive media (Eiken), read-out: MIC value (minimum inhibitory concentration)
Protocol: as §1

[4] = system: Staphylococcus aureus FDA 209P; experiment: as above; type: cell-based; conditions: FDA209P, read-out: MIC value (minimum inhibitory concentration)
Protocol: as §1

[5] = system: Staphylococcus aureus Smith No. 4; experiment: as above; type: cell-based; conditions: read-out: MIC value (minimum inhibitory concentration)
Protocol: as §1

[6] = system: Streptococcus epidermidis sp-al-l; experiment: as above; type: cell-based; conditions: read-out: MIC value (minimum inhibitory concentration)
Protocol: as §1

[7] = system: Streptococcus faecalis 8043; experiment: as above; type: cell-based
Protocol: as §1

[8] = system: Staphylococcus aureus Smith No. 4; experiment: In vivo antibacterial activity, oral treatment of intraperitoneally infected mice; parameters: species or system ICR mice; conditions: for number of mice surviving for 7 days after the infection: one hour after infection, 10 mice per group
Protocol: 10 male ICR mice (Charles River) being of the average body weight 23 g were used for each group. Staphylococcus aureus Smith No. 4 was grown on heart infusion agar medium at 37° C. for 18 hours. The bacteria were suspended in BSG (containing 8.5 g of NaCl, 300 mg of KH2 PO4, 600 mg of Na2 HPO4, 100 mg of gelatin and 1000 ml of water) to show 6×10^7 cfu/ml (containing 5% of mucin). The bacterial suspension (0.5 ml) was injected intraperitoneally to each groups of mice for infection. Erythromycin A and erythromycin A 9-oxime were used as control. An hour after infection, each compound was administered orally to different groups of animals in the specified amounts to study its therapeutic effect.
The therapeutic effect of the drugs was judged by the […] value calculated from the number of mice surviving for 7 days after the infection according to the method of Litchfield-Wilcoxon.

[9] = system: bacteria; experiment: Antibacterial activity (general statement); conditions: general statement in words
[10] = system: Staphylococcus aureus Smith No. 4; experiment: In vivo antibacterial activity, oral treatment of intraperitoneally infected mice; parameters: species or system ICR mice; conditions: one hour after infection, 7-day survival, Litchfield-Wilcoxon, 95% confidence limits given

## CC[C@H]1OC(=O)[C@H](C)[C@@H](O[C@H]2C[C@@](C)(OC)[C@@H](O)[C@H](C)O2)[C@H](C)[C@@H](O[C@@H]2O[C@H](C)C[C@H](N(C)C)[C@H]2O)[C@](C)(OC)C[C@@H](C)C(=NO)[C@H](C)[C@@H](O)[C@]1(C)O [Compound I, 6-O-methylerythromycin A 9-oxime]
[1]
  MIC: 0.1 µg/mL (≈ 0.131 µM)
[2]; ATCC6633, Bacillus subtilis ATCC 6633, sensitive media (Eiken), read-out: MIC value (minimum inhibitory concentration)
  MIC: 0.1 µg/mL (≈ 0.131 µM)
[3]
  MIC: 50 µg/mL (≈ 65.5 µM)
[4]; Staphylococcus aureus FDA 209P, sensitive media (Eiken)
  MIC: 0.1 µg/mL (≈ 0.131 µM)
[5]; Staphylococcus aureus Smith No. 4, sensitive media (Eiken)
  MIC: 0.1 µg/mL (≈ 0.131 µM)
[6]; Streptococcus epidermidis sp-al-l, sensitive media (Eiken)
  MIC: 0.2 µg/mL (≈ 0.262 µM)
[7]; Enterococcus faecalis, Streptococcus faecalis 8043, sensitive media (Eiken), read-out: MIC value (minimum inhibitory concentration)
  MIC: ≤ 0.05 µg/mL
[8]; 0.2 mg/mouse
  number of mice surviving for 7 days after the infection: 1/10
[8]; 0.4 mg/mouse
  number of mice surviving for 7 days after the infection: 4/10
[8]; 0.8 mg/mouse
  number of mice surviving for 7 days after the infection: 7/10
[8]; compared with erythromycin A or erythromycin A 9-oxime
  antibacterial activity by oral administration: far superior to erythromycin A or erythromycin A 9-oxime
[9]
  antibacterial activity: strong antibacterial activity
[10]
  ED50: 0.516 mg/mouse

## CC[C@H]1OC(=O)[C@H](C)[C@@H](O[C@H]2C[C@@](C)(OC)[C@@H](O)[C@H](C)O2)[C@H](C)[C@@H](O[C@@H]2O[C@H](C)C[C@H](N(C)C)[C@H]2O)[C@](C)(O)C[C@@H](C)C(=NO)[C@H](C)[C@@H](O)[C@]1(C)O [Erythromycin A 9-oxime, erythromycin A 9-oxime]
[8]; 0.5 mg/mouse
  number of mice surviving for 7 days after the infection: 0/10
[8]; 1 mg/mouse
  number of mice surviving for 7 days after the infection: 3/10
[8]; 2 mg/mouse
  number of mice surviving for 7 days after the infection: 7/10
[10]
  ED50: 1.418 mg/mouse

## CC[C@H]1OC(=O)[C@H](C)[C@@H](O[C@H]2C[C@@](C)(OC)[C@@H](O)[C@H](C)O2)[C@H](C)[C@@H](O[C@@H]2O[C@H](C)C[C@H](N(C)C)[C@H]2O)[C@](C)(O)C[C@@H](C)C(=O)[C@H](C)[C@@H](O)[C@]1(C)O [Erythromycin A, erythromycin A]
[1]
  MIC: 0.2 µg/mL (≈ 0.273 µM)
[2]; Bacillus subtilis, ATCC6633, read-out: MIC value (minimum inhibitory concentration)
  MIC: 0.1 µg/mL (≈ 0.136 µM)
[3]
  MIC: 50 µg/mL (≈ 68.1 µM)
[4]; Staphylococcus aureus
  MIC: 0.2 µg/mL (≈ 0.273 µM)
[5]; Staphylococcus aureus
  MIC: 0.1 µg/mL (≈ 0.136 µM)
[6]; Streptococcus
  MIC: 0.2 µg/mL (≈ 0.273 µM)
[7]; Enterococcus faecalis, 8043, read-out: MIC value (minimum inhibitory concentration)
  MIC: ≤ 0.05 µg/mL
[8]; 1 mg/mouse
  number of mice surviving for 7 days after the infection: 1/10
[8]; 2 mg/mouse
  number of mice surviving for 7 days after the infection: 8/10
[8]; 4 mg/mouse
  number of mice surviving for 7 days after the infection: 10/10
[10]
  ED50: 1.517 mg/mouse

From patent US4680386A, “6-O-methylerythromycin a derivative” (Taisho Pharmaceutical Co., Ltd., priority 1984, dated 1987)
